Results from patent US9593149B2, “Amylin and calcitonin receptor agonist” (Novo Nordisk A/S, priority 2014, dated 2017).
Peptide text beside a SMILES is read from it. * marks the point of attachment. C18 diacid = O=C(O)CCCCCCCCCCCCCCCCC(=O)*

Columns and labels:
[1] = Assay (XV) subcutaneous PK in LYD-pigs, co-formulated or co-dosed with liraglutide; type: in vivo; conditions: for AUC/D / Cmax/D / T½: LYD-pigs s.c.
Procedure: The studies were performed in female LYD pigs of SPF origin delivered from Lars Jonson, Hillerødvej 70, Lynge.
Before the animals arrived, the animal rooms and pens were cleaned and disinfected with Virkon S. During the study, the animal rooms were cleaned and washed regularly.
The pigs were group housed during the acclimatisation period. The pigs were fitted with a central venous catheter while under anaesthesia and after the single housed after catheterization in pens ≧3.1 m^2 with straw as bedding. The temperature in the rooms was set at 20−23° C. and the relative humidity to 30-70%. The rooms were illuminated to give a cycle of 12 hours light and 12 hours darkness. Light was on from 07.00 to 19.00 h.
The formulations was prepared similarly and filled in cartridges in all cases.
The animals were dosed subcutaneously as follows.
The s.c. dosing was performed in 4 mm depth, in a site of injection which was secured on beforehand by ultrasound to avoid muscular tissue or heavy vascularization. Dosing was made using NovoPen®4 and needle Novofine 28 G and a needle stopper to ensure 4 mm depth of injection. The needle was kept in the subcutis for 10 seconds after the injection to secure deposition of compound. […] The co-formulation was administered as one injection. Study was performed as a cross over study with adequate wash out between dosings.
Blood was sampled at predefined time points for up till 15 days post dosing to adequately cover the full plasma concentration-time profile of the mimylin derivative. Blood samples were drawn from a central venous catheter to jugularis made through the catheter which was afterwards flushed with 10 ml 0.9% NaCl.
For each blood sampling time point approximately 0.8 mL of whole blood was collected in a 1.5 mL EDTA coated tube, and the tube was gently turned to allowing mixing of the sample with the anticoagulant. Blood samples (for example 0.8 mL) were collected in EDTA buffer (8 mM) and then centrifuged at 4° C. and 2000 G for 10 minutes. Plasma was pipetted into Micronic tubes on dry ice, and kept at −20° C. until analysis.
Individual plasma concentration-time profiles were analysed by a non-compartmental model in Phoenix WinNonlin version 6.3 (Pharsight Inc., Mountain View, Calif., USA).
The area under the plasma concentration versus time curve (AUC, [time×concentration]) was calculated (by the Pharsight programme) after subcutaneous administration, typically until 240-288 hours post dosing, or until last measured concentration. The AUC was calculated and given as AUCinf-pred and dose normalized.
Results of co-formulation studies in LYD-pigs are summarized below

[2] = Assay (XVII) T½ and subcutaneous bioavailability in Beagle dogs; type: in vivo
Procedure: The area under the plasma concentration versus time curve (AUC, [time×concentration]) was calculated (by the Pharsight programme) after both subcutaneous administration and intravenous administration, typically until 240-288 hours post dosing, or until last measured concentration. The AUC was calculated by extrapolating to infinity and dose normalized. The absolute bioavailability (F %) was then calculated based on the dose-corrected AUC values, namely as AUC/Dsc divided by AUC/Div×100, where Dsc is the subcutaneous dose per kg, and Div the dose per kg given intravenously. Assay (XVII)—Determination of T½ and Subcutaneous Bioavailability in Beagle Dogs […]
By protraction is meant the prolongation of the time in the body and thereby the time of action of the mimylin derivatives. This was done in PK studies, where the terminal half-life of the derivative in question was determined following i.v. administration. By terminal half-life is generally meant the period of time it takes to halve a certain plasma concentration, measured after the initial distribution phase. […]
The plasma concentration of the respective mimylin derivative was analysed using LC-MS. Individual plasma concentration-time profiles were analysed by a non-compartmental model in Phoenix WinNonlin version 6.3 (Pharsight Inc., Mountain View, Calif., USA). […]

[3] = Co-formulation liraglutide + Ex #2

AUC/D ([1]; Co-dosing liraglutide + Ex #2): 712 kg·h/L
Cmax/D ([1]; Co-dosing liraglutide + Ex #2): 6.9 kg/L
T½ ([1]; Co-dosing liraglutide + Ex #2): 67 h
AUC/D [1, 3]: 732 kg·h/L
Cmax/D [1, 3]: 5.8 kg/L
T½ [1, 3]: 67 h
Subcutaneous bioavailability (%) ([2]; Beagle dogs): 98%
Beagle dogs iv PK, t½ ([2]; i.v., harmonic mean, n = 2): 95 h
Structure (SMILES): CC(C)C[C@H](NC(=O)[C@H](C)NC(=O)[C@H](C)NC(=O)[C@@H](NC(=O)[C@H](CO)NC(=O)[C@H](CC(C)C)NC(=O)[C@H](CCC(=O)O)NC(=O)[C@H](CO)NC(=O)[C@H](C)NC(=O)[C@H](CCC(=O)O)NC(=O)CCCCCCCCCCCCCCCCC(=O)O)[C@@H](C)O)C(=O)NCC(=O)N[C@@H](CCCNC(=N)N)C(=O)N[C@@H](CC(C)C)C(=O)N[C@@H](CO)C(=O)N[C@@H](C)C(=O)N[C@@H](CCC(=O)O)C(=O)N[C@@H](CC(C)C)C(=O)N[C@@H](Cc1cnc[nH]1)C(=O)N[C@@H](CCC(=O)O)C(=O)N[C@@H](CC(C)C)C(=O)N[C@@H](C)C(=O)N[C@H](C(=O)N[C@@H](CC(C)C)C(=O)N1CCC[C@H]1C(=O)N[C@@H](CCCNC(=N)N)C(=O)N[C@H](C(=O)N[C@@H](CCC(=O)O)C(=O)N[C@H](C(=O)NCC(=O)N1CCC[C@H]1C(=O)N[C@@H](CCC(=O)O)C(=O)N[C@@H](CO)C(=O)N1CCC[C@H]1C(N)=O)[C@@H](C)O)[C@@H](C)O)[C@@H](C)O [Ex. #2, [N-terminal(C18 diacid)]mimylin] ({C18 diacid}-EASELSTAALGRLSAELHELATLPRTETGPESP-NH2)
effect on PK profile of the co-formulated peptide ([1]; administered as co-formulations to LYD pigs): do not affect the PK profile of liraglutide
